Results taken from patent US20230143604A1, “QW DOSING OF GIP RECEPTOR AGONIST PEPTIDE COMPOUNDS AND USES THEREOF” (TAKEDA PHARMACEUTICAL COMPANY LIMITED, priority 2020, published 2023).
Starred links: 1 amine or outer side, 2 acyl side, 3 side chain; linkers in the order of their positions; H or OH if unused. Non-standard residues stand in square brackets, D forms with d. Residues, ends and D or L forms follow the SMILES beside them. Groups on a side chain read outwards from the residue. *: point of attachment. C20 diacid = O=C(O)CCCCCCCCCCCCCCCCCCC(=O)*; C18 diacid = O=C(O)CCCCCCCCCCCCCCCCC(=O)*; γGlu = O=C(O)[C@H](CCC(=O)[*:2])N[*:1]; NMeY = CN[C@@H](Cc1ccc(O)cc1)C(=O)O; AEEA = NCCOCCOCC(=O)O; Aib = CC(C)(N)C(=O)O

Experiment: Solubility in phosphate buffer pH 7.4
Outline: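 3 mg of peptide treated with 100 μL portions of 200 mM phosphate buffer pH 7.4, sonicating/vortexing up to 1 min, with further buffer added until fully dissolved. Solubility then quantified by HPLC.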

[1] = pH 7.4, aqueous buffer, pH 7.4 Phosphate Buffer - Solubility, 200 mM Phosphate buffer pH 7.4
[2] = pH 7.4, solubility in phosphate buffer at pH 7.4, 200 mM phosphate buffer pH 7.4

CC[C@H](C)[C@H](NC(=O)[C@H](CO)NC(=O)[C@H](Cc1ccc(O)cc1)NC(=O)[C@H](CC(C)C)NC(=O)[C@H](CO)NC(=O)[C@@H](NC(=O)[C@H](Cc1ccccc1)NC(=O)[C@@H](NC(=O)CNC(=O)[C@H](CCC(=O)O)NC(=O)C(C)(C)NC(=O)[C@H](Cc1ccc(O)cc1)NC)[C@@H](C)O)[C@@H](C)CC)C(=O)N[C@@H](C)C(=O)N[C@@H](CC(C)C)C(=O)N[C@@H](CC(=O)O)C(=O)N[C@@H](CCCNC(=N)N)C(=O)N[C@@H](CCCCNC(=O)CNC(=O)CNC(=O)CNC(=O)CNC(=O)CNC(=O)CNC(=O)CCCCCCCCCCCCCCCCC(=O)O)C(=O)N[C@@H](Cc1c[nH]cn1)C(=O)N[C@@H](CCC(N)=O)C(=O)NC(C)(C)C(=O)N[C@@H](CC(N)=O)C(=O)N[C@@H](Cc1ccccc1)C(=O)N[C@H](C(=O)N[C@@H](CC(N)=O)C(=O)N[C@@H](Cc1c[nH]c2ccccc12)C(=O)N[C@@H](CC(C)C)C(=O)N[C@@H](CC(C)C)C(=O)N[C@@H](C)C(=O)N[C@@H](CCC(N)=O)C(=O)N[C@@H](CCCNC(=N)N)C(=O)N1CCC[C@H]1C(=O)N[C@@H](CO)C(=O)N[C@@H](CO)C(=O)NCC(=O)N[C@@H](C)C(=O)N1CCC[C@H]1C(=O)N1CCC[C@H]1C(=O)N1CCC[C@H]1C(=O)N[C@@H](CO)C(=O)N[C@@H](CCCNC(=N)N)C(N)=O)C(C)C [Compound 277]
solubility (phosphate buffer, pH 7.4, aqueous buffer): < 15 mg/mL

CC[C@H](C)[C@H](NC(=O)[C@H](CO)NC(=O)[C@H](Cc1ccc(O)cc1)NC(=O)[C@H](CC(=O)O)NC(=O)[C@H](CO)NC(=O)[C@@H](NC(=O)[C@H](Cc1ccccc1)NC(=O)[C@@H](NC(=O)CNC(=O)[C@H](CCC(=O)O)NC(=O)C(C)(C)NC(=O)[C@H](Cc1ccc(O)cc1)NC)[C@@H](C)O)[C@@H](C)CC)C(=O)N[C@@H](C)C(=O)N[C@@H](CCCCNC(=O)CNC(=O)CNC(=O)CNC(=O)CNC(=O)CNC(=O)CC[C@H](NC(=O)CC[C@H](NC(=O)CCCCCCCCCCCCCCCCC(=O)O)C(=O)O)C(=O)O)C(=O)N[C@@H](CC(=O)O)C(=O)N[C@@H](CCCNC(=N)N)C(=O)NC(C)(C)C(=O)N[C@@H](C)C(=O)N[C@@H](CCC(N)=O)C(=O)NC(C)(C)C(=O)N[C@@H](CC(N)=O)C(=O)N[C@@H](Cc1ccccc1)C(=O)N[C@H](C(=O)N[C@@H](CC(N)=O)C(=O)N[C@@H](Cc1c[nH]c2ccccc12)C(=O)N[C@@H](CC(C)C)C(=O)N[C@@H](CC(C)C)C(=O)N[C@@H](C)C(=O)N[C@@H](CCC(N)=O)C(=O)N[C@@H](CCCNC(=N)N)C(=O)N1CCC[C@H]1C(=O)N[C@@H](CO)C(=O)N[C@@H](CO)C(=O)NCC(=O)N[C@@H](C)C(=O)N1CCC[C@H]1C(=O)N1CCC[C@H]1C(=O)N1CCC[C@H]1C(=O)N[C@@H](CO)C(N)=O)C(C)C [Compound 34]
solubility [1]: ≥ 30 mg/mL | solubility [2]: ≥ 15 mg/mL

CC[C@H](C)[C@H](NC(=O)[C@H](CO)NC(=O)[C@H](Cc1ccc(O)cc1)NC(=O)[C@H](CC(=O)O)NC(=O)[C@H](CO)NC(=O)[C@@H](NC(=O)[C@H](Cc1ccccc1)NC(=O)[C@@H](NC(=O)CNC(=O)[C@H](CCC(=O)O)NC(=O)C(C)(C)NC(=O)[C@H](Cc1ccc(O)cc1)NC)[C@@H](C)O)[C@@H](C)CC)C(=O)N[C@@H](C)C(=O)N[C@@H](CC(C)C)C(=O)N[C@@H](CC(=O)O)C(=O)N[C@@H](CCCNC(=N)N)C(=O)NC(C)(C)C(=O)N[C@@H](C)C(=O)N[C@@H](CCC(N)=O)C(=O)NC(C)(C)C(=O)N[C@@H](CC(N)=O)C(=O)N[C@@H](Cc1ccccc1)C(=O)N[C@H](C(=O)N[C@@H](CC(N)=O)C(=O)N[C@@H](Cc1c[nH]c2ccccc12)C(=O)N[C@@H](CC(C)C)C(=O)N[C@@H](CC(C)C)C(=O)N[C@@H](C)C(=O)N[C@@H](CCCCNC(=O)COCCOCCNC(=O)COCCOCCNC(=O)CC[C@H](NC(=O)CC[C@H](NC(=O)CCCCCCCCCCCCCCCCC(=O)O)C(=O)O)C(=O)O)C(=O)N[C@@H](CO)C(=O)N1CCC[C@H]1C(=O)N[C@@H](CO)C(=O)N[C@@H](CO)C(=O)NCC(=O)N[C@@H](C)C(=O)N1CCC[C@H]1C(=O)N1CCC[C@H]1C(=O)N1CCC[C@H]1C(=O)N[C@@H](CO)C(N)=O)C(C)C [Compound 59] (H-[NMeY][Aib]EGTFISDYSIALDR[Aib]AQ[Aib]NFVNWLLAK([AEEA-AEEA-γGlu-γGlu-C18 diacid])SPSSGAPPPS-NH2)
solubility [1]: ≥ 30 mg/mL | solubility [2]: ≥ 15 mg/mL

CC[C@H](C)[C@H](NC(=O)[C@H](CO)NC(=O)[C@H](Cc1ccc(O)cc1)NC(=O)[C@H](CC(=O)O)NC(=O)[C@H](CO)NC(=O)[C@@H](NC(=O)[C@H](Cc1ccccc1)NC(=O)[C@@H](NC(=O)CNC(=O)[C@H](CCC(=O)O)NC(=O)C(C)(C)NC(=O)[C@H](Cc1ccc(O)cc1)NC)[C@@H](C)O)[C@@H](C)CC)C(=O)N[C@@H](C)C(=O)N[C@@H](CC(C)C)C(=O)N[C@@H](CC(=O)O)C(=O)N[C@@H](CCCNC(=N)N)C(=O)NC(C)(C)C(=O)N[C@@H](CCCCNC(=O)COCCOCCNC(=O)COCCOCCNC(=O)CC[C@H](NC(=O)CC[C@H](NC(=O)CCCCCCCCCCCCCCCCCCC(=O)O)C(=O)O)C(=O)O)C(=O)N[C@@H](CCC(N)=O)C(=O)NC(C)(C)C(=O)N[C@@H](CC(N)=O)C(=O)N[C@@H](Cc1ccccc1)C(=O)N[C@H](C(=O)N[C@@H](CC(N)=O)C(=O)N[C@@H](Cc1c[nH]c2ccccc12)C(=O)N[C@@H](CC(C)C)C(=O)N[C@@H](CC(C)C)C(=O)N[C@@H](C)C(=O)N[C@@H](CCC(N)=O)C(=O)N[C@@H](CO)C(=O)N1CCC[C@H]1C(=O)N[C@@H](CO)C(=O)N[C@@H](CO)C(=O)NCC(=O)N[C@@H](C)C(=O)N1CCC[C@H]1C(=O)N1CCC[C@H]1C(=O)N1CCC[C@H]1C(=O)N[C@@H](CO)C(N)=O)C(C)C [Compound 99] (H-[NMeY][Aib]EGTFISDYSIALDR[Aib]K([AEEA-AEEA-γGlu-γGlu-C20 diacid])Q[Aib]NFVNWLLAQSPSSGAPPPS-NH2)
solubility [1]: ≥ 60 mg/mL

CC[C@H](C)[C@H](NC(=O)[C@H](CO)NC(=O)[C@H](Cc1ccc(O)cc1)NC(=O)[C@H](CC(=O)O)NC(=O)[C@H](CO)NC(=O)[C@@H](NC(=O)[C@H](Cc1ccccc1)NC(=O)[C@@H](NC(=O)CNC(=O)[C@H](CCC(=O)O)NC(=O)C(C)(C)NC(=O)[C@@H](N)Cc1ccc(O)cc1)[C@@H](C)O)[C@@H](C)CC)C(=O)N[C@@H](C)C(=O)N[C@@H](CC(C)C)C(=O)N[C@@H](CC(=O)O)C(=O)N[C@@H](CCCCN)C(=O)NC(C)(C)C(=O)N[C@@H](CCCCNC(=O)COCCOCCNC(=O)COCCOCCNC(=O)CC[C@H](NC(=O)CCCCCCCCCCCCCCCCC(=O)O)C(=O)O)C(=O)N[C@@H](CCC(N)=O)C(=O)N[C@@H](C)C(=O)N[C@@H](CC(=O)O)C(=O)N[C@@H](Cc1ccccc1)C(=O)N[C@H](C(=O)N[C@@H](CCC(=O)O)C(=O)N[C@@H](Cc1c[nH]c2ccccc12)C(=O)N[C@@H](CC(C)C)C(=O)N[C@@H](CC(C)C)C(=O)N[C@@H](C)C(=O)N[C@@H](CCC(N)=O)C(=O)N[C@@H](CCCNC(=N)N)C(=O)NCC(=O)O)C(C)C [Compound 162] (H-Y[Aib]EGTFISDYSIALDK[Aib]K([AEEA-AEEA-γGlu-C18 diacid])QADFVEWLLAQRG-OH)
solubility (pH 7.4): ≥ 15 mg/mL | solubility (pH 7.4, aqueous buffer): ≥ 30 mg/mL

CC[C@H](C)[C@H](NC(=O)[C@H](Cc1ccccc1)NC(=O)[C@@H](NC(=O)CNC(=O)[C@H](CCC(=O)O)NC(=O)C(C)(C)NC(=O)[C@H](Cc1ccc(O)cc1)NC)[C@@H](C)O)C(=O)N[C@@H](CO)C(=O)N[C@@H](CC(=O)O)C(=O)N[C@@H](Cc1ccc(O)cc1)C(=O)N[C@@H](CO)C(=O)N[C@H](C(=O)NC(C)(C)C(=O)N[C@@H](CC(C)C)C(=O)N[C@@H](CC(=O)O)C(=O)N[C@@H](CCCNC(=N)N)C(=O)NC(C)(C)C(=O)N[C@@H](CCCCNC(=O)COCCOCCNC(=O)COCCOCCNC(=O)CC[C@H](NC(=O)CC[C@H](NC(=O)CCCCCCCCCCCCCCCCC(=O)O)C(=O)O)C(=O)O)C(=O)N[C@@H](CCC(N)=O)C(=O)NC(C)(C)C(=O)N[C@@H](CC(=O)O)C(=O)N[C@@H](Cc1ccccc1)C(=O)N[C@H](C(=O)N[C@@H](CC(N)=O)C(=O)N[C@@H](Cc1c[nH]c2ccccc12)C(=O)N[C@@H](CC(C)C)C(=O)N[C@@H](CC(C)C)C(=O)N[C@@H](C)C(=O)N[C@@H](CCC(N)=O)C(=O)N[C@@H](CO)C(=O)N1CCC[C@H]1C(=O)NCC(=O)O)C(C)C)[C@@H](C)CC [Compound 87] (H-[NMeY][Aib]EGTFISDYSI[Aib]LDR[Aib]K([AEEA-AEEA-γGlu-γGlu-C18 diacid])Q[Aib]DFVNWLLAQSPG-OH)
solubility (pH 7.4): ≥ 15 mg/mL | solubility (pH 7.4, aqueous buffer): ≥ 30 mg/mL

CC[C@H](C)[C@H](NC(=O)[C@H](CO)NC(=O)[C@H](Cc1ccc(O)cc1)NC(=O)[C@H](CC(=O)O)NC(=O)[C@H](CO)NC(=O)[C@@H](NC(=O)[C@H](Cc1ccccc1)NC(=O)[C@@H](NC(=O)CNC(=O)[C@H](CCC(=O)O)NC(=O)C(C)(C)NC(=O)[C@H](Cc1ccc(O)cc1)NC)[C@@H](C)O)[C@@H](C)CC)C(=O)N[C@@H](C)C(=O)N[C@@H](CC(C)C)C(=O)N[C@@H](CC(=O)O)C(=O)N[C@@H](CCCNC(=N)N)C(=O)N[C@H](C(=O)N[C@@H](Cc1c[nH]cn1)C(=O)N[C@@H](CCC(N)=O)C(=O)N[C@@H](CCCCNC(=O)COCCOCCNC(=O)COCCOCCNC(=O)CC[C@H](NC(=O)CCCCCCCCCCCCCCCCC(=O)O)C(=O)O)C(=O)N[C@@H](CC(N)=O)C(=O)N[C@@H](Cc1ccccc1)C(=O)N[C@H](C(=O)N[C@@H](CC(N)=O)C(=O)N[C@@H](Cc1c[nH]c2ccccc12)C(=O)N[C@@H](CC(C)C)C(=O)N[C@@H](CC(C)C)C(=O)N[C@@H](C)C(=O)N[C@@H](CCC(N)=O)C(=O)N[C@@H](CCCCN)C(=O)O)C(C)C)[C@@H](C)CC [Compound 247] (H-[NMeY][Aib]EGTFISDYSIALDRIHQK([AEEA-AEEA-γGlu-C18 diacid])NFVNWLLAQK-OH; C-terminus assumed)
solubility (pH 7.4, aqueous buffer): ≥ 9.9 mg/mL
